This data set relates to mouse established cell line L929. Briefly: Cytotoxicity test (neutral red uptake, NR50). As to conditions: L929 cells, 2 days incubation with sample; concentration at which 50% of the cells are killed. Format: cell-based. Here is the method:
The cytotoxicity test was made according to methods described in J. Biomed. Mater. Res. 29, 829-835 (1995) and by use of a mouse established cell line L929. In detail, cell dispersion was prepared to be 10,000 cells/mL; and 0.1 mL of the cell dispersion was sowed in each well of the 96-well culture plate and incubated at 37° C. for 3 days. Subsequently, each of the aqueous solutions mentioned above was diluted to one of various concentrations, and was charged into respective well by 0.1 mL. Then, incubation was further continued for 2 days. Subsequently, 0.1 mL of neural red culture-medium solution as prepared as 150 microgram/mL was added into the each well; and the incubation was made at 37° C. for 3 hours. After the incubation, culture medium was removed; and the cells were fixed by 1 wt % glutaraldehyde aqueous solution and thereafter air-dried. Subsequently, 0.1 mL of water/ethanol solution (equal-volume mixture) having 1 wt % of acetic acid was added; and then neural red molecules that had been taken into the cells were extracted. Light absorbency at 541 nm was measured and NR50 values were obtained from result of this measurement. The NR50 value indicates a concentration at which 50% of the cells are killed. The smaller the NR50 value becomes, the larger becomes the toxicity.

Regarding `C=O` [Formaldehyde], the NR50 value is 1.7 ± 02 µg/mL. Take `O=CCCCC=O` [Glutaraldehyde]: the NR50 value stood at 3.9 ± 0.7 µg/mL.

The record behind these values is US7834065B2, “Medical-use two part reactive adhesive and medical-use resin having self-degradation property” (BMG Incorporated, priority 2006, dated 2010).
